Tests used:
[1] = known triarylmethane dyes; colour change from lower pH to higher pH; cited from earlier work
[2] = Storage stability of concentrates at elevated temperatures; details: pH indicator in agricultural concentrate with carbohydrate acids as pH modifying agent

| Structure (SMILES) | Range of pH colour transition [1] | stability of the pH indicator in the presence of carbohydrate acids / carbohydrate acid mixture [2] |
| --- | --- | --- |
| Cc1c(C2(c3cc(Br)c(O)c(Br)c3C)OS(=O)(=O)c3ccccc32)cc(Br)c(O)c1Br [bromocresol green] | pH 3.8-5.4 | – |
| Cc1cc(C2(c3cc(C)c(O)c(Br)c3)OS(=O)(=O)c3ccccc32)cc(Br)c1O [bromocresol purple] | pH 5.2-6.8 | – |
| O=S1(=O)OC(c2cc(Br)c(O)c(Br)c2)(c2cc(Br)c(O)c(Br)c2)c2ccccc21 [bromophenol blue] | pH 3.0-4.6 | – |
| O=S1(=O)OC(c2ccc(O)c(Cl)c2)(c2ccc(O)c(Cl)c2)c2ccccc21 [chlorophenol red] | pH 4.8-6.7 | low stability |

Source: patent US9277747B2, “Agricultural composition comprising pH sensitive agricultural chemicals and organic pH buffer” (NUTRIAG LTD., priority 2010, dated 2016)
